Like-named read-outs stand apart in the source and are kept apart here.

This is an account of results in US20110237533A1, “NOVEL POLYPHENOL COMPOUND” (priority 2008, published 2011).

The target of the test is T1, pancreatic lipase derived from swine (Sus scrofa, UniProt P00591).
T1 construct: purchased Sigma Ltd
T1 sequence (P00591 1-450): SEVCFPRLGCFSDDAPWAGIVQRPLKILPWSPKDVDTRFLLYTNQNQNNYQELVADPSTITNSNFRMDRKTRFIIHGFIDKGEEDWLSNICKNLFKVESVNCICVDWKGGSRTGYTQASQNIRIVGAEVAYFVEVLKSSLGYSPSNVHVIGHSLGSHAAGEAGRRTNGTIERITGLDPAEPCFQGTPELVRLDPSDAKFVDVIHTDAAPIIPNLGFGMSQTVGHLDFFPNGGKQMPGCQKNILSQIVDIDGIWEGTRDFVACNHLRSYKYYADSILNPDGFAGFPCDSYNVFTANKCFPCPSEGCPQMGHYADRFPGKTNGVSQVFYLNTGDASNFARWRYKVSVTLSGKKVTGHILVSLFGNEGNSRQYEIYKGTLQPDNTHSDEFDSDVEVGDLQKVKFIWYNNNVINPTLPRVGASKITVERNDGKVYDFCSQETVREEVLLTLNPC
In words: lipase inhibitory test (4-MUO substrate, fluorescence). The test is classed as biochemical. The conditions noted are these: read-out: lipase inhibitory activity (%).

On to `O=C(O)c1cc(O)c(O)c(O)c1` [gallic acid], for which the inhibition at 250 µM (sample concentration 250 μM, 4-MUO substrate, 37° C., 30 minutes) amounted to 50%.
Regarding `O=c1c(O)c(-c2ccc(O)c(O)c2)oc2cc(O)cc(O)c12` [quercetin], the inhibition at 250 µM was 64.3%.
